This test concerns passive cutaneous anaphylaxis. Briefly: Passive cutaneous anaphylaxis (PCA) in rats.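 As to all read-outs here: male rats, challenged with antigen plus Evans blue three days post sensitization, killed 30 min later, dorsal skin bluing graded on a five point scale, summed over four sites.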 Type of test: in vivo. To be noted: dosed immediately prior to intravenous challenge, rats sensitized intradermally with anti-ovalbumen antiserum; for ED50: Rattus norvegicus.
Where [1] appears, read: po, read-out: ED 50 p.o. (dose of drug giving 50% inhibition), p.o.
[2] abbreviates: read-out: ED 50 i.v. (dose of drug giving 50% inhibition), i.v.

Where two headings read alike, the source gives them in different places.

Protocol: Cutaneous anaphylaxis can be induced in rats by intradermal (ID) sensitization with antiserum followed three days later by systemic challenge with antigen. Evans blue dye injected with the antigen is used as a marker to assess the severity of the local response. […] Brown: Pergamon Press: --male rats weighing 180-220 grams are used in groups of seven.
Preparation of Antigen for Sensitization (Alum precipitated ovalbumen)
Wash 120 grams of Al(OH)3 in 140 ml of saline (use of a macerater facilitates mixing).
Centrifuge at 3,000 r.p.m. for about 10 minutes.
Resuspend the precipiate with 300 ml of albumen egg powder (1.3 mg/ml) in saline and allow to stand for 30 minutes.
Centrifuge at 3,000 r.p.m. for 10 minutes.
Weigh the wet precipitate and to each gram weight add 1 ml of saline. Store in refrigerator (Quantity sufficient for 60 rats for a 3 day sensitization program).
Preparation of Antiserum (anti-ovalbumen)
1 ml of the alum precipitated ovalbumen was injected subcutaneously into rats weighing 180-200 grams on days 0,2,4. The rats were bled on day 14 either by cardiac puncture or via the dorsal abdominal aorta. Equal quantities of serum from each animal were pooled and thoroughly mixed and 2 ml aliquots were stored at -20° C. in plastic tubes.
The animals were then left for a period of three days to develop sensitization.
The injections were speeded up by using an automatic 1 ml self-filling glass syringe. The "challenged" rats were killed after 30 minutes, usually pithed) and their skin on the dorsal surface was removed. The degree and area of blueing, proportional to the anaphylactic reaction was assessed on a five point scoring system.
Total scores for sites 1,2,3 and 4=X
2. mean value of X for each group=X

Take “5-n-butyl-7-(and 8)-nitro-4,5-dihydro-4-oxo-pyrrolo[1,2-a]quinoxaline-2-carboxylic acid [23(c)]”: the “ED 50 i.v. (dose of drug giving 50% inhibition)” value (i.v.) is given as 0.025 mg/kg. In addition, under “p.o.”, the “ED 50 p.o. (dose of drug giving 50% inhibition)” value is listed as 0.26 mg/kg.
On to `CCn1c(=O)c2cc(C(=O)O)cn2c2cc(Cl)ccc21` [24(d), 8-chloro-5-ethyl-4,5-dihydro-4-oxo-pyrrolo[1,2-a]quinoxaline-2-carboxylic acid], for which the ED50 is, setting by setting: under setting [1], 0.29 mg/kg; under setting [2], 0.035 mg/kg.
As for `CCOC(=O)c1cc2c(=O)n(C)c3ccccc3n2c1` [Example 1, ethyl 5-methyl-4,5-dihydro-4-oxo-pyrrolo[1,2-a]quinoxaline-2-carboxylate], the ED50 under setting [1] turned out to be 7 mg/kg.
Take `CCCCn1c(=O)c2cc(C(=O)OCC)cn2c2ccccc21` [Example 5, ethyl 5-n-butyl-4,5-dihydro-4-oxo-pyrrolo[1,2-a]quinoxaline-2-carboxylate]: the ED50 under setting [1] was determined as 4.1 mg/kg.
Regarding `Cn1c(=O)c2cc(C(=O)O)cn2c2ccccc21` [Example 12, 5-methyl-4,5-dihydro-4-oxo-pyrrolo[1,2-a]quinoxaline-2-carboxylic acid], the ED50 is, setting by setting: under setting [1], 0.54 mg/kg; under setting [2], 0.089 mg/kg.
Regarding `O=C(O)c1cc2c(=O)n(-c3ccccc3)c3ccccc3n2c1` [Example 13, 5-phenyl-4,5-dihydro-4-oxo-pyrrolo[1,2-a]quinoxaline-2-carboxylic acid], the ED50 under setting [1] is 19 mg/kg and the ED50 under setting [2] was determined as 1.57 mg/kg.
On to `CCn1c(=O)c2cc(C(=O)O)cn2c2ccccc21` [Example 14, 5-ethyl-4,5-dihydro-4-oxo-pyrrolo[1,2-a]quinoxaline-2-carboxylic acid], for which the ED50 by setting is: under setting [1], 0.035 mg/kg; under setting [2], 0.026 mg/kg.
As for `CCCn1c(=O)c2cc(C(=O)O)cn2c2ccccc21` [Example 15, 5-n-propyl-4,5-dihydro-4-oxo-pyrrolo[1,2-a]quinoxaline-2-carboxylic acid], the ED50 under setting [1] worked out at 0.032 mg/kg and the ED50 under setting [2] worked out at 0.019 mg/kg.
The matching figures for `CCCCn1c(=O)c2cc(C(=O)O)cn2c2ccccc21` [Example 16, 5-n-butyl-4,5-dihydro-4-oxo-pyrrolo[1,2-a]quinoxaline-2-carboxylic acid]: 0.058 mg/kg and 0.019 mg/kg.
Consider `CCCCCn1c(=O)c2cc(C(=O)O)cn2c2ccccc21` [Example 17, 5-n-pentyl-4,5-dihydro-4-oxo-pyrrolo[1,2-a]quinoxaline-2-carboxylic acid], for which the ED50 is, setting by setting: under setting [1], 0.31 mg/kg; under setting [2], 0.087 mg/kg.
As for `CC(C)n1c(=O)c2cc(C(=O)O)cn2c2ccccc21` [Example 18, 5-isopropyl-4,5-dihydro-4-oxo-pyrrolo[1,2-a]quinoxaline-2-carboxylic acid], the ED50 under setting [2] was 0.85 mg/kg.
In the case of `C=CCn1c(=O)c2cc(C(=O)O)cn2c2ccccc21` [Example 19, 5-allyl-4,5-dihydro-4-oxo-pyrrolo[1,2-a]quinoxaline-2-carboxylic acid], the ED50 under setting [1] is 0.28 mg/kg and the ED50 under setting [2] was determined as 0.035 mg/kg.
On to `O=C(O)c1cc2c(=O)n(C3CCCC3)c3ccccc3n2c1` [Example 20, 5-cyclopentyl-4,5-dihydro-4-oxo-pyrrolo[1,2-a]quinoxaline-2-carboxylic acid], for which, under setting [2], the ED50 turned out to be 0.37 mg/kg.
In the case of `CCCCn1c(=O)c2cc(C(=O)O)cn2c2cc(Cl)ccc21` [Example 21, 5-n-butyl-8-chloro-4,5-dihydro-4-oxo-pyrrolo[1,2-a]quinoxaline-2-carboxylic acid], the ED50 turned out to be 0.114 mg/kg under setting [1] and 0.019 mg/kg under setting [2].
With `CCCCn1c(=O)c2cc(C(=O)O)cn2c2cc(Cl)c(Cl)cc21` [Example 22, 5-n-butyl-7,8-dichloro-4,5-dihydro-4-oxo-pyrrolo[1,2-a]quinoxaline-2-carboxylic acid], the ED50 by setting is: under setting [1], 0.117 mg/kg; under setting [2], 0.014 mg/kg.

Values taken from patent publication US4151280A, “Pyrroloquinoxalines” (Roussel Uclaf, priority 1977, dated 1979).
